Biological target: T1, Sortase A (Staphylococcus aureus, UniProt Q9S446)
T1 sequence (Q9S446 whole entry): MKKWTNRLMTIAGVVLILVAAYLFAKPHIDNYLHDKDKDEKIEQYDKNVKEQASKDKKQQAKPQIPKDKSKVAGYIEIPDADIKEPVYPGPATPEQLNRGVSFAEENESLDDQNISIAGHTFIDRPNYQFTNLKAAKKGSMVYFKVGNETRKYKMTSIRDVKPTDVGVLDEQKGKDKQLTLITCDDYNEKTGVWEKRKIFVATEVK
Test: Inhibition of Staphylococcus aures sortase A by FRET assay

Which IC50 does the source give for `O=C(CCc1ccco1)Nc1ccc(N2CCOCC2)c(C(=O)O)c1` here?
Its IC50 is > 600 µM.

With `N#Cc1c(SCC(=O)c2ccc([N+](=O)[O-])cc2)[n-][s+]c1SCC(=O)c1ccc([N+](=O)[O-])cc1` as the compound, how does the IC50 read?
Its IC50 is 97.3 µM.

For `CS(=O)(=NC=C(C#N)C(=O)c1cccs1)c1ccc(Oc2ccc([N+](=O)[O-])cn2)cc1` (stereo not given), which IC50 is on record?
Its IC50 is 400 µM.

How did the IC50 turn out when `Nc1nccc(-c2ccc(NC(=O)Nc3ccc(Cl)cc3)cc2)n1` was run?
The IC50 was 400 µM.

For `O=C(/C=C/c1cccs1)Nc1ccc(N2CCOCC2)c(CO)c1`, which IC50 is on record?
The IC50 was 73 µM.

With `O=C(/C=C/c1ccco1)Nc1ccc(N2CCOCC2)c(CO)c1` as the compound, how does the IC50 read?
The IC50 was 111 µM.

Which IC50 does the source give for `O=Cc1cc(NC(=O)/C=C/c2cccs2)ccc1N1CCOCC1` here?
The IC50 was 77 µM.

`Cc1ccc(S(=O)(=O)NC(=O)Nc2ccc(NC(=O)c3ccccc3O)cc2)cc1` was tested. Which IC50 did it give?
Its IC50 is 226 µM.

With `CS(=O)(=NC=C(C#N)C(=O)c1ccco1)c1ccc(Oc2ccc([N+](=O)[O-])cn2)cc1` (stereo not given) as the compound, how does the IC50 read?
Its IC50 is 150 µM.

With `O=C(/C=C/c1cccs1)Nc1ccc(N2CCOCC2)c(C(=O)O)c1` as the compound, how does the IC50 read?
Its IC50 is 75 µM.

For `COC(=O)c1cc(NC(=O)/C=C/c2ccco2)ccc1N1CCOCC1`, which IC50 is on record?
The IC50 was 58 µM.

`O=C(O)/C=C/C(=O)Nc1ccc(NC(=O)c2ccccc2O)cc1` was tested. Which IC50 did it give?
Its IC50 is 125 µM.

For `N=C(N)N/N=C/c1ccc(/C=N/NC(=N)N)cc1`, which IC50 is on record?
Its IC50 is 275 µM.

For `COC(=O)c1cc(NC(=O)/C=C/c2cccs2)ccc1N1CCOCC1`, which IC50 is on record?
Its IC50 is 71 µM.

For `COC(=O)c1cc(NC(=O)CCc2cccs2)ccc1N1CCOCC1`, which IC50 is on record?
The IC50 was > 600 µM.

How did the IC50 turn out when `COC(=O)c1cc(NC(=O)CCc2ccco2)ccc1N1CCOCC1` was run?
Its IC50 is > 600 µM.

How did the IC50 turn out when `O=Cc1cc(NC(=O)/C=C/c2ccco2)ccc1N1CCOCC1` was run?
The IC50 was 107 µM.

With `NC(=O)c1cc(NC(=O)/C=C/c2cccs2)ccc1N1CCOCC1` as the compound, how does the IC50 read?
Its IC50 is 105 µM.

Which IC50 does the source give for `O=C(CCc1cccs1)Nc1ccc(N2CCOCC2)c(C(=O)O)c1` here?
Its IC50 is > 600 µM.

`O=C(/C=C/c1ccco1)Nc1ccc(N2CCOCC2)c(C(=O)O)c1` was tested. Which IC50 did it give?
The IC50 was 181 µM.

From ChEMBL document CHEMBL1142251, “Identification of novel inhibitors of bacterial surface enzyme Staphylococcus aureus Sortase A” (Bioorg Med Chem Lett, 2008)
